Source: patent US8354419B2, “Benzimidazole analogues for the treatment or prevention of flavivirus infections” (Vertex Pharmaceuticals Incorporated, priority 2009, dated 2013)
Read-outs that look alike come from different tables or passages of the source.

System: HCV (Ib) RNA replication
Experiment: Cell-based luciferase reporter HCV (1b) RNA replication assay (replicon cell lines Huh-7 5.2 and ET)
Set-up: species or system Hepatitis C virus
Details: HCV 1b genotype replicon, luciferase readout, 4 days incubation, read-out: EC50_1b
Method in brief: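 Huh-7-derived 5.2 or ET replicon cells carrying a firefly luciferase reporter were seeded at ~3000 cells/well in medium without G418 or phenol red. Compound was added after 3-4 h, followed by 4 days at 37 °C. Luciferase readout was used, with IC50 fitted by nonlinear regression from eleven concentrations in duplicate.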

COC(=O)N[C@H](C(=O)N1CCC[C@H]1c1nc2cc(-c3cc4sc(-c5ccc6nc([C@@H]7CCCN7C(=O)[C@@H](NC(=O)OC)C(C)C)[nH]c6c5)cc4s3)ccc2[nH]1)C(C)C [Compound 167]
EC50 (Hepatitis C virus, Huh-7, 96 h): ≤ 5 nM

COC(=O)N[C@H](C(=O)N1CCOC[C@H]1c1nc2cc(-c3ccc(-c4ccc5nc([C@@H]6COCCN6C(=O)[C@@H](NC(=O)OC)C(C)C)[nH]c5c4)cc3)ccc2[nH]1)C(C)C [Compound 168]
EC50 (Hepatitis C virus, Huh-7, 96 h): ≤ 5 nM

COC(=O)N[C@H](C(=O)N1C[C@@H](F)C[C@H]1c1nc2cc(-c3ccc(-c4ccc5nc([C@@H]6C[C@H](F)CN6C(=O)[C@@H](NC(=O)OC)C(C)C)[nH]c5c4)cc3)ccc2[nH]1)C(C)C [Compound 169]
EC50 (Hepatitis C virus, Huh-7, 96 h): ≤ 5 nM

COC(=O)N[C@H](C(=O)N1CCC[C@H]1c1nc2cc(-c3ccc(-c4ccc5[nH]c([C@@H]6CCCN6C(=O)[C@@H](NC(=O)OC)[C@@H](C)OC)nc5c4)cc3)ccc2[nH]1)[C@@H](C)OC [Compound 170]
EC50 (Hepatitis C virus, Huh-7, 96 h): ≤ 5 nM

COC(=O)N[C@@H](C(=O)N1CCC[C@H]1c1nc2cc(-c3ccc(-c4ccc5[nH]c([C@@H]6CCCN6C(=O)[C@H](NC(=O)OC)C(C)C)nc5c4)cc3)ccc2[nH]1)C(C)C [Compound 171]
EC50 (Hepatitis C virus, Huh-7, 96 h): 5 to 5000 nM

COC(=O)N[C@H](C(=O)N1CCC[C@H]1c1nc2cc(-c3ccc(-c4ccc5nc([C@@H]6CCCN6C(=O)[C@@H](NC(=O)OC)C(C)C)[nH]c5c4)c4c3OCCO4)ccc2[nH]1)C(C)C [Compound 172]
EC50 (Hepatitis C virus, Huh-7, 96 h): ≤ 5 nM

COC(=O)N[C@H](C(=O)N1CCC[C@H]1c1nc2cc(-c3ccc(-c4ccc5nc([C@@H]6CCCN6C(=O)[C@@H](NC(=O)OC)C(C)C)[nH]c5c4)c4ocnc34)ccc2[nH]1)C(C)C [Compound 173]
EC50 (Hepatitis C virus, Huh-7, 96 h): ≤ 5 nM

COC(=O)N[C@H](C(=O)N1C[C@H](OC)C[C@H]1c1nc2cc(-c3ccc(-c4ccc5[nH]c([C@@H]6C[C@@H](OC)CN6C(=O)[C@@H](NC(=O)OC)C(C)C)nc5c4)cc3)ccc2[nH]1)C(C)C [Compound 174]
EC50 (Hepatitis C virus, Huh-7, 96 h): ≤ 5 nM

COC(=O)N[C@H](C(=O)N1CCC[C@H]1c1nc2cc(-c3cnc(-c4ccc5[nH]c([C@@H]6CCCN6C(=O)[C@@H](NC(=O)OC)C(C)C)nc5c4)s3)ccc2[nH]1)C(C)C [Compound 176]
EC50 (Hepatitis C virus, Huh-7, 96 h): 5 to 5000 nM

COC(=O)N[C@H](C(=O)N1CCC[C@H]1c1nc2cc(-c3ccc(-c4ccc5nc([C@@H]6CCCN6C(=O)[C@@H](NC(=O)OC)C(C)C)[nH]c5c4)cc3C(F)(F)F)ccc2[nH]1)C(C)C [Compound 177]
EC50 (Hepatitis C virus, Huh-7, 96 h): ≤ 5 nM

CCOC(=O)N[C@H](C(=O)N1CCC[C@H]1c1nc2cc(-c3ccc(-c4ccc5[nH]c([C@@H]6CCCN6C(=O)[C@@H](NC(=O)OCC)C(C)C)nc5c4)cc3)ccc2[nH]1)C(C)C [Compound 178]
EC50 (Hepatitis C virus, Huh-7, 96 h): ≤ 5 nM

COC(=O)NC(C(=O)N1CCCC1c1nc2cc(-c3ccc(-c4ccc5[nH]c([C@@H]6CCCN6C(=O)C(NC(=O)OC)C(C)(C)F)nc5c4)cc3)ccc2[nH]1)C(C)(C)F (stereo partly drawn) [Compound 179]
EC50 (Hepatitis C virus, Huh-7, 96 h): ≤ 5 nM

COC(=O)NC(C(=O)N1CCC[C@H]1c1nc2cc(-c3ccc(-c4ccc5[nH]c([C@@H]6CCCN6C(=O)C(NC(=O)OC)C(C)(C)F)nc5c4)cc3)ccc2[nH]1)C(C)(C)F (stereo partly drawn) [Compound 180]
EC50 (Hepatitis C virus, Huh-7, 96 h): ≤ 5 nM

COC(=O)N[C@H](C(=O)N1CCC[C@H]1c1nc2cc(-c3ccc(-c4ccc5nc([C@@H]6CCCN6C(=O)[C@@H](NC(=O)OC)C(C)C)[nH]c5c4)cc3C(=O)OC)ccc2[nH]1)C(C)C [Compound 181]
EC50 (Hepatitis C virus, Huh-7, 96 h): ≤ 5 nM

COC(=O)N(C)[C@H](C(=O)N1CCC[C@H]1c1nc2cc(-c3ccc(-c4ccc5nc([C@@H]6CCCN6C(=O)[C@H](C(C)C)N(C)C(=O)OC)[nH]c5c4)c4c3OCO4)ccc2[nH]1)C(C)C [Compound 182]
EC50 (Hepatitis C virus, Huh-7, 96 h): ≤ 5 nM

COC(=O)N[C@H](C(=O)N1CCC[C@H]1c1nc2cc(-c3nnc(-c4ccc5[nH]c([C@@H]6CCCN6C(=O)[C@@H](NC(=O)OC)C(C)C)nc5c4)s3)ccc2[nH]1)C(C)C [Compound 184]
EC50 (Hepatitis C virus, Huh-7, 96 h): ≤ 5 nM

COC(=O)N[C@H](C(=O)N1CCC[C@H]1c1nc2cc(-c3ccc(-c4ccc5nc([C@@H]6CCCN6C(=O)[C@@H](NC(=O)OC)[C@@H](C)OC)[nH]c5c4)c4c3OCO4)ccc2[nH]1)[C@@H](C)OC [Compound 185]
EC50 (Hepatitis C virus, Huh-7, 96 h): ≤ 5 nM

COC(=O)N[C@H](C(=O)N1C[C@@H](C)C[C@H]1c1nc2cc(-c3ccc(-c4ccc5[nH]c([C@@H]6C[C@H](C)CN6C(=O)[C@@H](NC(=O)OC)C(C)C)nc5c4)cc3)ccc2[nH]1)C(C)C [Compound 186]
EC50 (Hepatitis C virus, Huh-7, 96 h): ≤ 5 nM

COC(=O)N[C@H](C(=O)N1CCC[C@H]1c1nc2cc(-c3ccc(-c4ccc5[nH]c([C@@H]6CC(F)(F)CN6C(=O)[C@@H](NC(=O)OC)C(C)C)nc5c4)cc3)ccc2[nH]1)C(C)C [Compound 187]
EC50 (Hepatitis C virus, Huh-7, 96 h): ≤ 5 nM

COC(=O)N[C@H](C(=O)N1CCC[C@H]1c1nc2cc(-c3ccc(-c4ccc5nc([C@@H]6CCCN6C(=O)[C@@H](NC(=O)OC)[C@@H](C)OC)[nH]c5c4)c4ncoc34)ccc2[nH]1)[C@@H](C)OC [Compound 188]
EC50 (Hepatitis C virus, Huh-7, 96 h): ≤ 5 nM

CC(C)[C@H](NC(=O)OC(C)(C)C)C(=O)N1CCC[C@H]1c1nc2ccc(-c3ccc(-c4ccc5nc([C@@H]6CCCN6C(=O)[C@@H](NC(=O)OC(C)(C)C)C(C)C)[nH]c5c4)cc3)cc2[nH]1 [Compound 189]
EC50 (Hepatitis C virus, Huh-7, 96 h): 5 to 5000 nM

COC(=O)NC(C(=O)N1CCCC1c1nc2cc(-c3ccc(-c4ccc5nc(C6CCCN6C(=O)C(NC(=O)OC)C(C)(C)C)[nH]c5c4)cc3)ccc2[nH]1)C(C)(C)C (stereo not drawn) [Compound 190]
EC50 (Hepatitis C virus, Huh-7, 96 h): ≤ 5 nM

COC(=O)NC(C(=O)N1CCCC1c1nc2cc(-c3ccc(-c4ccc5nc(C6CCCN6C(=O)C(NC(=O)OC)C(C)(C)C)[nH]c5c4)cc3)ccc2[nH]1)C(C)(C)C (stereo not drawn) [Compound 191]
EC50: ≤ 5 nM

c1cc(-c2ccc3[nH]c([C@@H]4CCCN4CCC4CCOCC4)nc3c2)ccc1-c1ccc2[nH]c(C3CCCN3CCC3CCOCC3)nc2c1 (stereo partly drawn) [Compound 192]
EC50 (Hepatitis C virus, Huh-7, 96 h): 5 to 5000 nM

COC(=O)NC(C(=O)N1CCCC1c1nc2cc(-c3ccc(-c4ccc5nc(C6CCCN6C(=O)C(NC(=O)OC)C(C)(C)C)[nH]c5c4)cc3)ccc2[nH]1)C(C)(C)C (stereo not drawn) [Compound 193]
EC50: 5 to 5000 nM

[2H]C1([2H])Oc2c(-c3ccc4[nH]c([C@@H]5CCCN5C(=O)[C@@H](NC(=O)OC)C(C)C)nc4c3)ccc(-c3ccc4[nH]c([C@@H]5CCCN5C(=O)[C@@H](NC(=O)OC)C(C)C)nc4c3)c2O1 [Compound 194]
EC50 (Hepatitis C virus, Huh-7, 96 h): ≤ 5 nM

COC(=O)N[C@H](CN1CCC[C@H]1c1nc2cc(-c3ccc(-c4ccc5[nH]c([C@@H]6CCCN6C[C@@H](NC(=O)OC)C(C)C)nc5c4)cc3)ccc2[nH]1)C(C)C [Compound 195]
EC50 (Hepatitis C virus, Huh-7, 96 h): 5 to 5000 nM

COCC(=O)N[C@H](C(=O)N1CCC[C@H]1c1nc2ccc(-c3ccc(-c4ccc5nc([C@@H]6CCCN6C(=O)[C@@H](NC(=O)COC)C(C)C)[nH]c5c4)cc3)cc2[nH]1)C(C)C [Compound 196]
EC50 (Hepatitis C virus, Huh-7, 96 h): 5 to 5000 nM

CC(C)[C@H](N)C(=O)N1CCC[C@H]1c1nc2ccc(-c3ccc(-c4ccc5nc([C@@H]6CCCN6C(=O)[C@@H](N)C(C)C)[nH]c5c4)cc3)cc2[nH]1 [Compound 197]
EC50 (Hepatitis C virus, Huh-7, 96 h): 5 to 5000 nM

COC(=O)N[C@H](C(=O)N1CCC[C@H]1c1nc2cc(-c3ccc(-c4ccc5nc([C@@H]6CCCN6C(=O)[C@@H](NC(=O)OC)C(C)C)[nH]c5c4)cc3C(=O)O)ccc2[nH]1)C(C)C [Compound 198]
EC50 (Hepatitis C virus, Huh-7, 96 h): ≤ 5 nM

COC(=O)N[C@H](C(=O)N1CCC[C@H]1c1nc2cc(-c3cc4sc(-c5ccc6nc([C@@H]7CCCN7C(=O)[C@@H](NC(=O)OC)[C@@H](C)OC)[nH]c6c5)cc4s3)ccc2[nH]1)[C@@H](C)OC [Compound 199]
EC50 (Hepatitis C virus, Huh-7, 96 h): ≤ 5 nM

COC(=O)N[C@H](C(=O)N1CCC[C@H]1c1nc2ccc(-c3cnc(-c4ccc5nc([C@@H]6CCCN6C(=O)[C@@H](NC(=O)OC)C(C)C)[nH]c5c4)n3C)cc2[nH]1)C(C)C [Compound 200]
EC50 (Hepatitis C virus, Huh-7, 96 h): 5 to 5000 nM

COC(=O)NC(C(=O)N1CCC[C@H]1c1nc2ccc(-c3cnc(-c4cnc(-c5ccc6nc([C@@H]7CCCN7C(=O)[C@@H](NC(=O)OC)C(C)C)[nH]c6c5)n4C)n3C)cc2[nH]1)C(C)C (stereo partly drawn) [Compound 201]
EC50 (Hepatitis C virus, Huh-7, 96 h): ≤ 5 nM

COC(=O)N[C@H](C(=O)N1CCC[C@H]1c1nc2cc(-c3c[nH]c(-c4ccc5nc([C@@H]6CCCN6C(=O)[C@@H](NC(=O)OC)C(C)C)[nH]c5c4)n3)ccc2[nH]1)C(C)C [Compound 202]
EC50 (Hepatitis C virus, Huh-7, 96 h): 5 to 5000 nM

COC(=O)N[C@@H](Cc1cncn1C)C(=O)N1CCC[C@H]1c1nc2cc(-c3ccc(-c4ccc5[nH]c([C@@H]6CCCN6C(=O)[C@@H](NC(=O)OC)C(C)C)nc5c4)cc3)ccc2[nH]1 [Compound 203]
EC50 (Hepatitis C virus, Huh-7, 96 h): ≤ 5 nM

COC(=O)N[C@H](C(=O)N1CCC[C@H]1c1nc2cc(C#Cc3ccc4[nH]c([C@@H]5CCCN5C(=O)[C@@H](NC(=O)OC)[C@@H](C)OC)nc4c3)ccc2[nH]1)[C@@H](C)OC [Compound 206]
EC50 (Hepatitis C virus, Huh-7, 96 h): ≤ 5 nM

COC(=O)N[C@H](C(=O)N1CCC[C@H]1c1nc2cc(-c3ccc(-c4ccc5[nH]c([C@@H]6CCCN6C(=O)[C@@H](NC(=O)OC)[C@@H](C)OC)nc5c4)c(C)c3)ccc2[nH]1)[C@@H](C)OC [Compound 207]
EC50 (Hepatitis C virus, Huh-7, 96 h): ≤ 5 nM

COC(=O)N[C@H](C(=O)N1CCC[C@H]1c1nc2cc(-c3ccc(-c4ccc5[nH]c([C@@H]6CCCN6C(=O)[C@@H](NC(=O)OC)[C@@H](C)OC)nc5c4)cc3)ccc2[nH]1)C(C)C [Compound 208]
EC50 (Hepatitis C virus, Huh-7, 96 h): ≤ 5 nM

CC(C)[C@H](O)C(=O)N1CCC[C@H]1c1nc2cc(-c3ccc(-c4ccc5nc([C@@H]6CCCN6C(=O)[C@@H](O)C(C)C)[nH]c5c4)c4c3OCO4)ccc2[nH]1 [Compound 209]
EC50 (Hepatitis C virus, Huh-7, 96 h): 5 to 5000 nM

O=C(OCc1ccccc1)N1CCC[C@H]1c1nc2ccc(N3CCN(c4ccc5nc([C@@H]6CCCN6C(=O)OCc6ccccc6)[nH]c5c4)CC3)cc2[nH]1 [Compound 210]
EC50 (Hepatitis C virus, Huh-7, 96 h): 5 to 5000 nM

COC(=O)NC(C(=O)N1CCC[C@H]1c1nc2ccc(-c3ccc(-c4ccc5nc([C@@H]6CCCN6C(=O)[C@@H](NC(=O)OC)C(C)C)[nH]c5c4)cc3)cc2[nH]1)C(C)(C)C (stereo partly drawn) [Compound 211]
EC50 (Hepatitis C virus, Huh-7, 96 h): ≤ 5 nM

COC(=O)NC(C(=O)N1CCC[C@H]1c1nc2ccc(-c3ccc(-c4ccc5nc([C@@H]6CCCN6C(=O)[C@@H](NC(=O)OC)C(C)C)[nH]c5c4)cc3)cc2[nH]1)C(C)(C)C (stereo partly drawn) [Compound 212]
EC50: ≤ 5 nM
